From US10995126B2, “Immunogenic peptide containing a b cell epitope of tumor associated antigen L6” (National Health Research Institutes, priority 2016, dated 2021)
No end group written: not given here.

How the values were obtained:
[1] = test system: lung cancer cell line H2981; test: ADCC Cr51 release assay with sera of immunized mice, H2981 target cells; type: cell-based, human; conditions: formulated with PELC/CpG; sera collected at 6 weeks
Method: (§1) FIG. 9 is a set of graphs showing that peptide formulated with different adjuvants induced antibody-dependent cellular cytotoxicity (ADCC) against human cancer cells. Mice were immunized with peptide Th-EP1-A2-5 in various adjuvants twice at a two-week interval. Sera were collected at 6 weeks for ADCC assay. (A) Lung cancer cell line H2981 was used as a target. (B) Human breast cancer cell lines MCF7 and MCF7-TAL6 were used as targets. TAL6-specific ADCC was determined by Cr^51 release assay. The lysis percentage was calculated as: immunized serum (lysis %)−naïve serum (lysis %) ***P<0.001.
(§2) Mice were immunized with Th-A2-5-EP1 formulated with different adjuvants twice at a two-week interval. Sera was collected at 6 weeks for ADCC assay. […] TAL6-specific ADCC was determined by Cr51 release assay. The lysis percentage was calculated by subtracting the […].
(§3) Mice spleen cells were used as effector cells for the ADCC assay. […] After 6 hr, supernatants were harvested to measure the radioactivity using a gamma counter. Spontaneous release was measured in wells containing target cells alone. […] Percent cytotoxicity was determined according to the formula: percent lysis=100×(experimental ^51Cr release−spontaneous ^51Cr release)/(maximal ^51Cr release−spontaneous ^51Cr release).

[2] = test system: breast cancer cell lines MCF7 and MCF7-TAL6; test: ADCC Cr51 release assay with sera of immunized mice, MCF7 and MCF7-TAL6 target cells; type: cell-based, human; conditions: formulated with PELC/CpG; sera collected at 6 weeks
Method: as §1, §2, §3

[3] = test system: anti-TAL6 monoclonal antibody L6; test: ELISA epitope mapping: detection of coated TAL6 peptides by L6 mAb; type: binding; conditions: plate coated with peptide 10 μg/ml; antibody 1:500
Method: FIG. 1 includes (A) a scheme showing the overlapping peptides that cover the extracellular domains of TAL6: EL1 (residues 31 to 46 of SEQ ID NO: 1); EL2 (residues 114 to 164 of SEQ ID NO: 1); EP1 (SEQ ID NO: 4); EP2 (SEQ ID NO: 17); EP3 (SEQ ID NO: 18); and EP4 (SEQ ID NO: 19); and (B) a graph showing binding of the peptides to anti-TAL6 antibodies. A 96-well plate was coated with the indicated peptides (10 μg/ml) in each well. Three anti-TAL6 antibodies (1:500) were used to detect these peptides. CP: Control peptide.
FIG. 10 is a graph showing identification of residues in EP1 that are important for antibody binding using alanine scanning. The amino acid residues in EPI were individually replaced with alanine to generate EP1-1 to EP1-20 peptides. Monoclonal antibody L6 was used to detect these peptides. EP1 is a positive control and EP-3 is a negative control.
Three purified anti-TAL6 monoclonal antibodies (1F4, 9C7, L6) were used to detect the surface expression TAL6 on EL-4 (EL-4/L6) cells. See Chang et al., Int J Cancer, 116 (2005) 243-252. […] To further map the antibody-binding epitopes, five peptides (EL1 and EP1-4) that cover the EL1 and EL2 extracellular loops were used to determine the linear B cell epitopes using ELISA. […]
(§4) For antibody epitope mapping, L6, 9C7 and 1F4 Mabs were assayed by ELISA. […] Absorbance was measured at 450 nm.

[4] = test system: EL4 parental cells; test: ADCC Cr51 release assay with sera of immunized mice, EL4 parental target cells; type: cell-based; conditions: C57BL/6 mice, IFA; sera 1:100; immunized serum lysis % minus naïve serum lysis %
Method: (§5) FIG. 2 is a set of graphs showing that immunization of WT mice with the EP1 peptide induced anti-tumor immunity. EP1 or positive control MCF-7/TAL6 cells formulated with incomplete Freund's adjuvant (IFA) were administered to mice twice at a two-week interval. (A) Anti-TAL6 antibody titers were determined by using cell-based ELISA. Antigen-specific antibody was calculated as: EL4-L6 (O.D.)−EL4 (O.D.). (B) TAL6-specific ADCC was determined in a Cr^51 release assay. The lysis percentage was calculated as immunized serum (lysis %)−naïve serum (lysis %). ***P<0.001.
(§6) To test whether the EP1 peptide could raise antibodies that bind native TAL6, the EP1 peptide or MCF-7/L6 cells (as positive control) were formulated with IFA/Th and administered to C57BL/6 mice. Sera from immunized mice were collected and the anti-TAL6 antibody titers were analyzed using cell-based ELISA. […]
as §3

[5] = test system: B16-L6 cells; test: Immunization then subcutaneous B16-L6 tumor challenge in WT mice; type: in vivo, C57BL/6 mice
Method: EP1 or positive control MCF-7/TAL6 cells formulated with incomplete Freund's adjuvant (IFA) were administered to mice twice at a two-week interval. (A) At 7 days after the final immunization, B16-L6 (2×10^4) cells were inoculated subcutaneously. Tumor growth was monitored 2-3 times per week. (B) The survival rate of the mice was determined.
Mice were immunized with 50 mg of EP1 formulated with the indicated adjuvants twice at a 14-day interval. (A) At 7 days after the second immunization, 2×10^4 of B16/TAL6 cells were injected subcutaneously. Tumor growth was monitored 2-3 times per week. Results obtained are expressed as mean SD (n=6). (B) Mouse survival rate was monitored. Results are expressed as means ±SD (*P<0.05.**P<0.01).
See FIG. 2, B. To investigate if the EP1 peptide could induce anti-tumor activity, mice were immunized with EP1 peptide and then challenged with B16-L6 cells (2×10^4/mouse) at 7 days after the final immunization.
The EP1 peptide was formulated with different adjuvants. Mice were immunized with 50 mg of the formulations twice at a 14-day interval. At 7 days after the second immunization, 2×10^4 B16/TAL6 cells were injected subcutaneously to the mice. Tumor growth was monitored 2-3 times per week.
HLA-A2 Tg mice were injected subcutaneously (s.c.) twice at a 2-week interval with peptide formulated in IFA, alum, DOTAP liposome, PELC nanoparticles, or TLR9 agonist CpG. Seven days after the second immunization, the B16-L6-A2 or B16-L6 cells (2×10^4) were inoculated s.c. on the opposite site of the peptide injection. Tumor sizes were measure 2-3 times per week. Tumor volume was calculated using the formula: tumor volume=length×width×width/2.

[6] = test system: TAL6-expressed EL4 (EL4/L6) cells; test: ADCC Cr51 release assay with sera of immunized mice, EL4/L6 target cells; type: cell-based; conditions: C57BL/6 mice, IFA; sera 1:100; immunized serum lysis % minus naïve serum lysis %
Method: as §5
FIG. 6 is a set of graphs showing that immunization with PELC/CpG/Th-A2-5-EP1 induced high levels of humoral and cellular immunity in HLA-A2 mice. The Th-A2-5-EP1 peptide was formulated with different adjuvants. […] (A) IFN-γ-secreting cells were determined using IFN-γ ELISpot assay. Results are expressed as mean SD. ***P<0.001. […] (D) TAL6-specific ADCC was determined by Cr^51 release assay. The lysis percentage was calculated as: immunized serum (lysis %)—naïve serum (lysis %) ***P<0.001.
as §6

[7] = biological target: T1, native TAL6 (Homo sapiens, UniProt P30408); test: Anti-TAL6 antibody in sera of immunized mice, cell-based ELISA; type: in vivo, C57BL/6 mice; conditions: formulated with IFA/Th, sera 1:500, EL4-L6 O.D. minus EL4 O.D.
T1 construct: expressed in transfected cells; host or cells: EL-4 (mouse lymphoma) cells expressing TAL6 (EL-4/L6, EL4-L6)
T1 sequence (P30408 1-202): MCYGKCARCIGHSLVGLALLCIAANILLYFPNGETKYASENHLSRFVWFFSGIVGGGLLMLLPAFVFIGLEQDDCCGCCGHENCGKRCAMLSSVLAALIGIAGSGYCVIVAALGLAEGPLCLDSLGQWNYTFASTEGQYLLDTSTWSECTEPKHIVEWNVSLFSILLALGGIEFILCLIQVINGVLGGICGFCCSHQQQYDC
Method: as §5
To test whether the EP1 peptide could raise antibodies that bind native TAL6, the EP1 peptide or MCF-7/L6 cells (as positive control) were formulated with IFA/Th and administered to C57BL/6 mice. Sera from immunized mice were collected and the anti-TAL6 antibody titers were analyzed using cell-based ELISA. […] See FIG. 2, A. Whether EP1 immunization could induce antibody-dependent cellular cytotoxicity (ADCC) was also investigated. Sera (1:100) from mice immunized with either EP1 or MCF-7/L6 cells could kill TAL6-expressed EL4 (EL4/L6) cells but not EL4 parental cells (61.82%±6.12% v.s. 0.36%±0.96% and 65.54%±1.77% v.s. 11.41%±3.094%). […]
as §4

| Sequence | ADCC cytotoxicity, rank among adjuvant formulations [1] | ADCC cytotoxicity, rank among adjuvant formulations [2] | detection of the peptide by L6 mAb (ELISA) [3] | ADCC lysis of EL4 parental cells [4] | tumor growth ([5]; formulated with IFA, immunized twice, B16-L6 2×10^4/mouse s.c. 7 days after final immunization) | anti-tumor effects (tumor growth, survival) ([5]; formulated with PELC/CpG, 50 mg twice at 14-day interval, 2×10^4 B16/TAL6 cells s.c.) | anti-tumor effect (tumor growth) ([5]; formulated with different adjuvants, 50 mg twice at 14-day interval, 2×10^4 B16/TAL6 cells s.c.) | ADCC lysis of EL4/L6 cells [6] | anti-TAL6 antibody amount in sera versus vehicle (PBS) [7] |
| --- | --- | --- | --- | --- | --- | --- | --- | --- | --- |
| AKFVAAWTLKAAAAAALLMLLPAFVAAAGLAEGPLCLDSLGQWNYTFA [Th-A2-5-EP1] | strongest cytotoxicity | strongest cytotoxicity | – | – | – | – | – | – | – |
| GLAEGPLCLDSLGQWNYTFA [EP1] | – | – | could be detected by L6 mAb | 0.36%±0.96% | significantly inhibited tumor growth | induced anti-tumor effects | exhibited an anti-tumor effect | 61.82%±6.12% | significantly higher amount of antibody |
